Laboratory results reported in patent US11896678B2, “Compositions and methods for treatment of peroxisome proliferator-activated receptor gamma (PPARG) activated cancer” (THE BROAD INSTITUTE, INC., priority 2017, dated 2024).

Key:
[1] = test system: PPARG-activated bladder cancer cell lines; assay: Proliferation assays in PPARG-activated bladder cancer cell lines; format: cell-based, human; conditions: 100 nM-500 nM
Protocol: A panel of bladder cancer cell lines with PPARG modulators in colony formation assays was then tested (FIG. 10), kinetic proliferation assays (IncuCyte Zoom; Essen Bioscience) using cell lines treated with a single concentration of compound (100 nM-500 nM), and end-point dose-response assays (CellTiter Glo or CyQuant).
This assay was expanded to include an additional 8 representative bladder cancer cell lines, including cell lines with PPARG amplification, RXRA p.S427F mutation, activated gene signature, and control cell lines with low level expression of PPARG and target genes. […] Representative data for the UM-UC-9 cell line are shown in FIG. 6B, and is tabulated for the tested bladder cancer cell lines in Table 1. […] This significant (P<0.01) preferential sensitivity to PPARG inverse-agonists, but not antagonists, is maintained across all of the PPARG-activated cell lines in the panel, including the RXRA p.S427F cell line, HT-1197 (41), the PPARG-amplified cell lines, 5637 and UM-UC-9, and the PPARG activation gene signature cell lines Cal29, UM-UC-1, and RT112/84 (FIG. 12). […] Similar results were obtained with these cell lines in parallel studies using clonogenic assays to quantify colony-forming ability (FIG. 10).
(§1) Proliferation Assays: To enable cell-counting experiments, cell lines were transduced with a lentiviral vector encoding nuclear-targeted GFP, TagGFP2-H2B (Evrogen), and stable pools generated following selection for puromycin resistance. Cell lines were maintained for at least 7 days following selection prior to expansion and seeding into 96- or 384-well plates for further analysis. For kinetic proliferation assays, 96-well plates (n 1% 4 per condition) were imaged and counted every two hours using IncuCyte Zoom (Essen BioScience). Media and compounds were replaced approximately every 3-4 days. For endpoint assays to measure dose-response, cells were plated in 384-well plates, dosed with compound, and upon reaching approximately 70% to 90% confluence in control wells, cells were either counted using fluorescence imaging (Incu-Cyte Zoom) or incubated with CyQuant (Thermo Fisher) at the indicated time and plates were read with a fluorescent plate reader.

DLBCL cells = conditions: 1-15 uM; cited from earlier work
PPARA = target: T1, PPARA (Homo sapiens, UniProt Q07869); conditions: read-out: apparent Ki; cited from earlier work
T1 sequence (Q07869 1-468): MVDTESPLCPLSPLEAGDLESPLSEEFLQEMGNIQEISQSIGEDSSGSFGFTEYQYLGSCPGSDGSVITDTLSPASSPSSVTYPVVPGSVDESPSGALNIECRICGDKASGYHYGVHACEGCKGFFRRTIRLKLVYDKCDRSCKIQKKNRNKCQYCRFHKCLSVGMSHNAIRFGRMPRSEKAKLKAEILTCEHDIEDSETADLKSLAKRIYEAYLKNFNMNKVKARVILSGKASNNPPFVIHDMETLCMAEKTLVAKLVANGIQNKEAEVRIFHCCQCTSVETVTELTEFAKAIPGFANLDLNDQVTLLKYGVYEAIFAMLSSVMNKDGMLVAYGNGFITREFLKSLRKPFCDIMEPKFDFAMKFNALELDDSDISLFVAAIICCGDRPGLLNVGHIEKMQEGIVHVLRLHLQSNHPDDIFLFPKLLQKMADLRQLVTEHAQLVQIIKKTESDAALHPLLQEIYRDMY

UM-UC-9 cells = assay: Direct cell counting dose-response proliferation assay; format: cell-based, human
Protocol: To determine whether PPARG modulators affect the proliferation and/or viability of PPARG-activated bladder cancer cell lines, a direct cell counting-based assay was performed. This assay likely avoids potential artifacts associated with the use of an ATP content-based assay, given that PPAR modulators are known to regulate cellular metabolic activity. […] These IC50 values align well with the calculated IC50s from both the cell-based reporter gene assay (FIG. 8A) and the biochemical corepressor assay (FIG. 8D).
as §1

FABP4 expression = assay: Immunoblot of FABP4 in bladder cancer cell lines; format: cell-based, human; conditions: panel of bladder cancer cell lines
Protocol: Western Blot Analysis: Western blots were performed using standard protocols with semi-dry transfer Trans-Blot® SD (Bio-Rad Hercules, CA), Li-Cor Odyssey Blocking buffer, and imaging with LiCor Odyssey Imaging System (LI-COR Lincoln, NE). Briefly, cells were grown in 6-well plates and harvested using Complete Lysis-M with protease and phosphatase inhibitors (Roche Applied Science). Western blot analyses were performed using standard protocols with semi-dry transfer Trans-Blot SD (Bio-Rad), LI-COR Odyssey Blocking buffer, and imaging with LI-COR Odyssey Imaging System (LI-COR). The anti-PPARG C26H12, anti-PPARG 81B8, anti-FABP4 D25B3, and anti-CEACAM5 CB30 antibodies were obtained from Cell Signaling Technology. The anti-ACSL5 ab57210 and anti-HMCGS2 EPR8642 antibodies were obtained from Abcam. The anti-VCL (vinculin) V9264 antibody was obtained from Sigma-Aldrich. All primary antibodies were tested at 1:1,000 dilutions, with the exception of anti-VCL, which was tested at a 1:5,000 dilution. Secondary goat anti-mouse 926-68020, and goat-anti-rabbit 926-32211 antibodies were obtained from LI-COR Biosciences and used at 1:15,000 dilutions.

[2] = test system: PPARG-activated pancreatic and colorectal cancer cell lines; assay: Kinetic proliferation assay in pancreatic and colorectal cancer cell lines; format: cell-based; conditions: 500 nM
Description: To enable cell-counting, cell lines were transduced with a lentiviral vector encoding nuclear-targeted GFP (TagGFP2-H2B), and stable pools generated following selection for puromycin-resistance. Cell lines were maintained for at least 7 days following selection prior to expansion and seeding into 96-well plates for further analysis. For kinetic proliferation assays, 96-well plates were imaged in phase-contrast and green fluorescence mode every two hours using IncuCyte Zoom (Essen BioScience, Ann Arbor MI). Using IncuCyte software, the number of fluorescent nuclei were counted to monitor quantitative changes in cell number over time. Media and compounds were replaced approximately every 3-4 days.
DMSO treatment was also included as a vehicle control.

5637 cells = assay: Proliferation assay in PPARG-amplified 5637 cells; format: cell-based; conditions: Homo sapiens; data not shown
Protocol: To determine if treatment of PPARG-activated bladder cancer cell lines with PPARG modulators impacted viability, a variety of compounds were tested in proliferation assays.

For `O=C(Nc1ccncc1)c1cc([N+](=O)[O-])ccc1Cl` [T0070907, 2-Chloro-5-nitro-N-4-pyridinyl-benzamide], the “sensitivity of cell lines” value [1] is given as “preferentially sensitive”, the “growth of DLBCL cells” value (DLBCL cells) is given as “attenuate growth” and the Ki (PPARA) is given as roughly 850 nM. The “effect on cell proliferation compared with DMSO control” value (UM-UC-9 cells) was “significantly reduced proliferation”, the IC50 (UM-UC-9 cells; Homo sapiens, UM-UC-9, read-out: calculated IC50, proliferation) was 39 nM and the “expression of FABP4” value (FABP4 expression) was “able to reduce expression of FABP4”. For the same molecule, the “sensitivity of cell lines” value [2] was “preferentially sensitive” and the IC50 (5637 cells) was 20 to 30 nM.
